Data reported in US11298367B2, “Prodrugs of substituted triazole derivatives and uses thereof” (Bayer Aktiengesellschaft, priority 2017, dated 2022).

What was measured:
[1] = test system: vasopressin (AVP) mediated changes of systemic and renal hemodynamics; test: Acute effects on vasopressin-mediated changes of systemic hemodynamics, renal blood flow and oxygenation in anesthetized rats; format: in vivo, rat; conditions: AVP 50 ng/kg/min + compound 30 μg/kg bolus, mean ± SD, n = 8
Description: B-11. Acute Effects on Vasopressin-Mediated Changes of Systemic Hemodynamics, Renal Blood Flow and Oxygenation in Anesthetized Rats
Experiments are performed on male Sprague Dawley rats (Charles River, Deutschland; 350-450 g body weight). In preparation for surgical procedures rats are anesthetized with isoflurane and placed on a heated table to maintain core body temperature at 37° C., assessed using a rectal thermometer inserted. Inhalation anesthesia with isoflurane is applied using a calibrated vaporizer to induce and maintain anesthesia with 5 vol. % and 2 vol. % isoflurane, respectively. A PE50 cannula is placed in the right arteria femoralis for monitoring mean arterial pressure (MAP). Another PE50 catheter is inserted into the vena femoralis for intravenous infusion. The left kidney is exposed by a flank incision and separated from the perirenal attachments. The kidney capsule remains intact. During surgery and the subsequent equilibration and control periods, the rats receive an intravenous infusion of saline (0.9% NaCl) at rate 100 μL/min. Renal measurements of renal blood flow (RBF) are recorded using a laser Doppler blood flow probe (Oxford Optronix, UK) that is attached and stabilized to the surface of the kidney. The probe is inserted into the renal cortex to a depth of 2 mm and another into the renal medulla at 4 mm. The renal blood flow, oxygen and temperature are measured by combined sensor probe (Oxford Optronix, UK). MAP, heart rate (HR), RBF, temperature and oxygen are continuously recorded. After surgery and equilibration, baseline measurements are determined for 20 minutes. The rats are then intravenously infused with vasopressin atrate 50 ng/kg/min in 100 μL/kg for 20 minutes. In the third period, the effect of combined infusion of vasopressin and adual vasopressin receptor antagonist (Example 82 of WO 2016/071212) or a selective V1a antagonist (Example 1) or vehicle that is applied as a bolus in different concentration is determined.

vasopressin V2 receptor = biological target: T1, vasopressin V2 receptor (Rattus norvegicus, UniProt Q00788); test: Diuresis investigations in conscious rats kept in metabolism cages; format: in vivo; conditions: Wistar rats, i.v., solvent control = 100%
T1 construct: from tissue; host or cells: whole animal (conscious Wistar rats; renal V2 receptors)
T1 sequence (Q00788 whole entry): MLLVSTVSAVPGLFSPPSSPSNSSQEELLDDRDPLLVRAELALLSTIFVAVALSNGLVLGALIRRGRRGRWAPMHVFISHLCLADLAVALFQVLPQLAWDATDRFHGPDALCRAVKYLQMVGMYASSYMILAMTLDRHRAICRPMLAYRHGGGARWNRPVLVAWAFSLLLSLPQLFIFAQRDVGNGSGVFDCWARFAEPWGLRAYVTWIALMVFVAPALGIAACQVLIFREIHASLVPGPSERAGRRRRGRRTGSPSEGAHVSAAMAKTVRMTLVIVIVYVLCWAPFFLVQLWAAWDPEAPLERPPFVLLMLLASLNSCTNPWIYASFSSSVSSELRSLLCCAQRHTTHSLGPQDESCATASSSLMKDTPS
Description: B-8. In Vivo Assay for Detecting Vasopressin V2 Receptor-Meidated Effects: Diuresis Investigations in Conscious Rats Kept in Metabolism Cages
Wistar rats (400-500 g body weight) are kept with free access to feed (Altromin) and drinking water. During the experiment, the animals are kept with free access to drinking water for 7 hours individually in metabolism cages suitable for rats of this weight class (Tecniplast Deutschland GmbH, D-82383 Hohenpeißenberg). At the beginning of the experiment, the animals are administered the test substance in a volume of 1 ml/kg body weight of a suitable solvent (2-Hydroxylpropyl-beta-cyclodextrin) by intravenous application. Control animals only receive solvent. Controls and substance tests are carried out in parallel on the same day. Control groups and substance-dose groups each consist of 6 to 8 animals. During the experiment, the urine excreted by the animals is collected continuously in a receiver at the base of the cage. The volume of urine is determined separately for each animal. Before the beginning of the experiment, the body weight of the individual animals is determined.
Following intravenous administration, in comparison with the solvent control applications, a vasopressin V2 receptor blocking compound would bring about an increased excretion of urine, which is based essentially on an increased excretion of water (aquaresis).

SMILES	HR (heart rate) [1] [BPM]	MAP (mean arterial blood pressure) [1] [mmHg]	RBF (renal blood flow) [1] [U]	pO2 (partial pressure of renal oxygen) [1] [mmHg]	Urinary volume (vasopressin V2 receptor; dosage 0.3 mg/kg) [% vs. control]	Urinary volume (vasopressin V2 receptor; dosage 1.0 mg/kg) [% vs. control]	Urinary volume (vasopressin V2 receptor; dosage 3.0 mg/kg) [% vs. control]
NC(=O)c1nc(Cn2nc(-c3ccc(Cl)cc3)n(C[C@H](OP(=O)(O)O)C(F)(F)F)c2=O)nn1-c1ncccc1C(F)(F)F [Example 1, (2S)-3-[1-({5-Carbamoyl-1-[3-(trifluoromethyl)pyridin-2-yl]-1H-1,2,4-triazol-3-yl}methyl)-3-(4-chlorophenyl)-5-oxo-1,5-dihydro-4H-1,2,4-triazol-4-yl]-1,1,1-trifluoropropan-2-yl Dihydrogen Phosphate]	276.20 ± 4.46	103.50 ± 4.97	877.00 ± 43.01	14.32 ± 1.13	127	117	108
NC(=O)c1nc(Cn2nc(-c3ccc(Cl)cc3)n(C[C@H](O)C(F)(F)F)c2=O)nn1-c1ncccc1C(F)(F)F [Example 4A, 3-({3-(4-Chlorophenyl)-5-oxo-4-[(2S)-3,3,3-trifluoro-2-hydroxypropyl]-4,5-dihydro-1H-1,2,4-triazol-1-yl}methyl)-1-[3-(trifluoromethyl)pyridin-2-yl]-1H-1,2,4-triazole-5-carboxamide]	270.50 ± 2.89	114.80 ± 7.42	878.10 ± 96.92	15.86 ± 4.01	95	154	134
